Measurements published in US20130123358A1, “Metabolic Benefits to Butyrate as a Chronic Diet Supplement” (priority 2009, published 2013).

Key:
[1] = test system: brown adipose tissue PGC-1α and UCP-1; test: Brown adipose tissue morphology, qRT-PCR and immunoblot; type: in vivo, mouse
Experimental: Total RNA was extracted from frozen tissues (kept at −80° C.) using Tri-Reagent (T9424, Sigma) as described elsewhere (16). Taqman RT-PCR primer and probe were used to determine mRNA for PGC-1α (Mm00447183_m1), UCP-1 (Mm00494069_m1), PPARδ (Mm01305434_m1) and CPT1b (Mm00487200_m1). The reagents were purchased from Applied Biosystems (Foster City, Calif.). Mouse ribosome 18S rRNA_s1 (without intron-exon junction) was used as an internal control. Reaction was conducted with 7900 HT Fast real time PCR System (Applied Biosystems, Foster City, Calif.).
Fresh fat and muscles were collected and frozen in liquid nitrogen. The whole cell lysate protein was extract in lysis buffer with sonication and analyzed in western blot as described elsewhere (16). Antibodies were used in study of myoglobin (sc-25607, Santa Cruz), PGC-1 (sc-13068, Santa Cruz), Tubulin (ab7291, Abcam), myosin (M8421, Sigma), pAMPK (Thr 172, #2531, Cell signaling) and p-p38 (sc-7975, Santa Cruz). To detect multiple signals from one membrane, the membrane was stripped with a stripping buffer. Intensity of the immunoblot signal was quantified using a computer program, ImageJ 1.37v (NIH). The mean values of results from three experiments (6 mice each group) were presented. The antibodies to PGC-1α and UCP-1 were from Dr. Thomas Gettys at Pennington Biomedical Research Center, Baton Rouge, La.
Fresh tissues (muscle, fat and liver) were collected at 16 weeks of age after 12 weeks butyrate feeding and fixed in 10% neutral buffered formalin solution (HT50-1-2, Sigma). The tissue slides were obtained through serial cross-section cutting at 8 um thickness and processed with a standard procedure. Briefly, the slides were deparaffinated and stained in haematoxylin (#101542, Surgipath) for 15 min, and rinsed in water until sections are blue. Then, slides were stained in Eosin (E4009, Sigma), dehydrated quickly in 95% ethanol and treated with […]. The sections were mounted and photographed with Nikon microscope (Eclipse TS100, Japan).
In addition, the morphology and gene expression were examined in the brown fat of mice. Hematoxylin and eosin staining (H&E staining) was conducted on brown adipose tissues collected at 13 weeks on HFD. […] Compared to the control mice, the size of brown adipocytes was much smaller in the butyrate group (FIG. 4B), indicating a higher thermogenic activity that leads to the reduction in fat accumulation. Mitochondrial function is regulated by gene expression (24). To understand the molecular basis of the increased thermogenesis, the expression of two thermogenesis-related genes, such as PGC-1α and UCP-1, were examined in BAT. mRNA of both genes was increased in the butyrate-treated mice. Brown adipose tissues were collected at 13 weeks on HFD, and gene expression for PGC-1α and UCP-1 was examined by qRT-PCR. In addition, the corresponding proteins were assayed using a whole cell lysate (100 μg) resolved in SDS-PAGE and blotted with PGC-1α and UCP-1 antibodies. […] Data in FIGS. 4A-4D are presented as means±SE (n=9 mice). * P<0.05. This increase in gene expression provides a molecular basis for the enhanced thermogenesis by the butyrate treatment.

[2] = test system: islet cells; settings: isolated rat islet cells; cited from earlier work
[3] = test system: HDAC; test: Histone deacetylase assay on muscle nuclear extracts of treated mice; type: in vivo, mouse; settings: butyrate 5% w/w in HFD, 16 weeks on HFD, muscle nuclear extracts
Experimental: Histone deacetylase assay were conducted according to the instruction from the manufacturer (#17-320, Upstate). Briefly, 10 ug of muscle nuclear extract (as an enzyme) was incubated with [3H]-acetyl CoA (#TRK688, Amersham) radio labeled histone H4 peptide (25,000 CPM, as a substrate) at 37° C. for 12 hours by shaking Released [3H]-acetate was measured using a scintillation counter. The nuclear extract was prepared according to a protocol described elsewhere (17). The muscle tissues were collected and snap-frozen in liquid nitrogen within 2 min of cervical dislocation of mice. Tissue samples were stored at −80° C. until further processing. The muscle sample of 200˜300 mg was cut into small pieces on dry ice and homogenized in 1 ml of lysate buffer. After centrifugation at 10,000 rpm for 1 minute at 4° C., the nucleus was pelleted and collected. After being washed, the nucleus pellet was treated with extraction buffer. The supernatant was collected for nuclear protein after centrifugation at 14,000 rpm for 5 minutes at 4° C.
Without wishing to be bound by this theory, one activity of butyrate could be related to inhibition of HDAC. Sodium butyrate inhibits the class I and class II histone deacetylases (HDACs). To test this possibility, HDAC activity was examined in the skeletal muscle of mice at 16 weeks on HFD (FIG. 7G). The assay was conducted with the nuclear extracts of muscle samples. […]

[4] = test system: 3T3-L1 cells; test: Adipogenesis in 3T3-L1 cells (qRT-PCR, Oil red O); type: cell-based
Experimental: The epididymal fat pad was examined to test this effect of butyrate. The tissue was collected at 13 weeks on HFD (18 weeks in age) and used to make a tissue slide (FIG. 3A). After H&E staining, the slide was photographed under a microscope at magnification 20× (FIG. 3A). Gene expression was determined by qRT-PCR at day 8 after induction of cell differentiation of 3T3-L1 cells. Butyrate was used at 100 uM during induction of adipogenesis. Triglycerides in the 3T3-L1 mature adipocyte cells were quantified using Oil red 0 staining at the day 8 post-induction of differentiation (FIG. 3C). In addition, levels of mRNA for leptin, adiponectin, F4/80 (macrophage marker), TNF-α, and iNOS were determined in the epididymal fat and their relative levels are presented in bar figures (FIGS. 3D-3H). In FIGS. 3A-3H, data are represented as mean±SE (n=8). *P<0.05, **P<0.001.
To confirm the butyrate effect on adipocytes, 3T3-L1 cells were used to study butyrate activity in vitro. The cells were treated with butyrate during induction of adipogenesis, which was determined by expression of adipocyte-specific genes and triglyceride amount. […] However, expression of leptin was reduced by butyrate (FIG. 3B). The reduction may be a result of a decrease in triglyceride accumulation in the differentiated 3T3-L1 adipocytes (FIG. 3C). The triglyceride level was reduced 50% in the cells treated by butyrate.

[5] = butyrate 5% w/w in HFD 13 weeks, immunoblot
[6] = butyrate 5% w/w in HFD 13 weeks, qRT-PCR
[7] = butyrate 100 uM during induction of adipogenesis, qRT-PCR day 8

Question: With `CCCC(=O)[O-].[Na+]` [sodium butyrate] as the compound, how does the “size of brown adipocytes” value ([1]; butyrate 5% w/w in HFD 13 weeks vs control, H&E) read?
Answer: Its value is “much smaller”.

Question: And the “PGC-1α protein in brown fat” value [1, 5]?
Answer: Its value is “also increased”.

Question: And the “UCP-1 protein in brown fat” value [1, 5]?
Answer: The value was “also increased”.

Question: And the “PGC-1α mRNA in BAT” value [1, 6]?
Answer: Its value is “increased”.

Question: What about the “UCP-1 mRNA in BAT” value [1, 6] of the same compound?
Answer: Its value is “increased”.

Question: What about the “cell viability (islet cells)” value [2] of the same compound?
Answer: Its value is “decrease”.

Question: What about the “insulin release in the presence of glucose (islet cells)” value [2] of the same compound?
Answer: Its value is “decrease”.

Question: And the “HDAC activity in skeletal muscle, reduction” value [3]?
Answer: The value was 50%.

Question: What about the “adipocyte-specific markers (PPARδ, aP2, SREBP, and adiponectin)” value [4, 7] of the same compound?
Answer: The value was “not reduced”.

Question: And the expression of leptin [4, 7]?
Answer: The expression of leptin was “reduced”.

Question: What about the “triglyceride level, reduction” value ([4]; butyrate 100 uM, Oil red O, day 8 post-induction) of the same compound?
Answer: Its value is 50%.
